# In patent US7638639B2, “Substituted pyrrolidine and related compounds” (Theravance, Inc., priority 2003, dated 2009):
# Molecular target: T1, hM2 receptor (Homo sapiens, UniProt P08172)
# T1 construct: expressed in transfected cells
# T1 sequence (P08172 1-466): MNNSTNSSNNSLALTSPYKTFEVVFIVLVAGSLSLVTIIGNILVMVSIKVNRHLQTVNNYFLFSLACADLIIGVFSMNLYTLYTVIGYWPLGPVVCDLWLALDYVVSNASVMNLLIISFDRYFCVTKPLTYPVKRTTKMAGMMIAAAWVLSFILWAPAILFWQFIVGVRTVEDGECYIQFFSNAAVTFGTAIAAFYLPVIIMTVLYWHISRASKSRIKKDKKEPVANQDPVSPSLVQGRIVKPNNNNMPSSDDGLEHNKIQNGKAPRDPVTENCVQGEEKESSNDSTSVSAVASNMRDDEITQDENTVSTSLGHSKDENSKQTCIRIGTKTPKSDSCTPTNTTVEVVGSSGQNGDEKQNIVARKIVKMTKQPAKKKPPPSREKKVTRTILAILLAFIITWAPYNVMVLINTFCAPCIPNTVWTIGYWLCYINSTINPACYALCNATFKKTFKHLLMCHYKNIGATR
# Assay: Blockade of agonist-mediated inhibition of cAMP accumulation
# Assay type: cell-based
# Conditions: CHO-K1 cells expressing the hM2 receptor; read-out: Ki for blockade of oxotremorine-inhibition of forskolin-mediated cAMP accumulation
# Procedure: A. Blockade of Agonist-Mediated Inhibition of cAMP Accumulation
# In this assay, the functional potency of a test compound was determined by measuring the ability of the test compound to block oxotremorine-inhibition of forskolin-mediated cAMP accumulation in CHO-K^1 cells expressing the hM2 receptor.
# cAMP assays were performed in a radioimmunoassay format using the Flashplate Adenylyl Cyclase Activation Assay System with ^125I-cAMP (NEN SMP004B, PerkinElmer Life Sciences Inc., Boston, Mass.), according to the manufacturer's instructions.
# Cells were rinsed once with dPBS and lifted with […] (0.05% trypsin/[…]) as described in the Cell Culture and Membrane Preparation section above. […] The cell pellet was then re-suspended in 10 mL dPBS, and the cells were counted with a Coulter Z1 Dual Particle Counter (Beckman Coulter, Fullerton, Calif.). […]
# Reactions were incubated for 10 minutes at 37° C. and stopped by addition of 100 μL ice-cold detection buffer. Plates were sealed, incubated overnight at room temperature and counted the next morning on a PerkinElmer TopCount liquid scintillation counter (PerkinElmer Inc., Wellesley, Mass.). The amount of cAMP produced (pmol/well) was calculated based on the counts observed for the samples and cAMP standards, as described in the manufacturer's user manual. […]
structure (smiles),measurement,value
"CNCCCCCCCCN1CC[C@@H](C(C(N)=O)(c2ccccc2)c2ccccc2)C1 [Example 1, 2-[(S)-1-(8-Methylaminooctyl)pyrrolidin-3-yl]-2,2-diphenylacetamide]",Ki,< 5 nM
